Measurements reported in US20080064727A1, “Crystalline forms of tiagabine hydrochloride” (Cephalon, Inc., priority 2006, published 2008).

Key:
Format in all cases: physicochemical
[1] = Solid-form stability on storage, resulting form by XRPD analysis
Experimental: (§1) X-ray powder diffraction (XRPD) analyses were performed using the following instruments & methods:
(§2) A. Shimadzu XRD-6000 X-ray powder diffractometer using Cu Kα radiation. The instrument was equipped with a long fine focus X-ray tube. The tube voltage and amperage were set to 40 kV and 40 mA, respectively. The divergence and scattering slits were set at 1° and the receiving slit was set at 0.15 mm. Diffracted radiation was detected by a NaI scintillation detector. A θ-2θ continuous scan at 3°/min (0.4 sec/0.02° step) from 2.5 to 40° 2θ was used. A silicon standard was analyzed to check the instrument alignment. Data were collected and analyzed using XRD-6000 v. 4.1. Samples were prepared for analysis by placing them in a sample holder.
(§3) B. Inel XRG-3000 diffractometer, equipped with a CPS (Curved Position Sensitive) detector with a 2 Orange of 120°. Real time data were collected using Cu—Kα radiation starting at approximately 4° 2θ at a resolution of 0.03° 2θ. The tube voltage and amperage were set to 40 kV and 30 mA, respectively. The monochromator slit was set at 5 mm by 80 μm or 160 μm. […] Samples were prepared for analysis by packing them into thin-walled glass capillaries. Each capillary was mounted onto a goniometer head that is motorized to permit spinning of the capillary during data acquisition. The acquisition time was between 5 to 10 min. Instrument calibration was performed using a silicon reference standard.
(§4) D. Bruker D-8 Discover diffractometer and Bruker's General Area Diffraction Detection System (GADDS, v. 4.1.20). An incident beam of Cu—Kα radiation was produced using a fine-focus tube (40 kV, 40 mA), a Gobel mirror, and a 0.5 mm double-pinhole collimator. The samples were positioned for analysis by securing the well plate to a translation stage and moving each sample to intersect the incident beam. Alternatively, the sample was packed between 3-micron thick films to form a portable disc-shaped specimen, and the specimen was loaded in a holder secured to a translation stage. The samples were analyzed using a transmission geometry. The incident beam was scanned and rastered over the sample during the analysis to optimize orientation statistics. A beam-stop was used to minimize air scatter from the incident beam at low angles. Diffraction patterns were collected using a Hi-Star area detector located 15 cm from the sample and processed using GADDS. The intensity in the GADDS image of the diffraction pattern was integrated using a step size of 0.04° 2θ. The integrated patterns display diffraction intensity as a function of 2θ. Prior to the analysis a silicon standard was analyzed to verify the Si 111 peak position.
E. Peak Picking Methods. Any XRPD files generated from Inel or Bruker XRPD instruments were converted to Shimadzu .raw file using File Monkey version 3.0.4. The Shimadzu .raw file was processed by the Shimadzu XRD-6000 version 4.1 software to automatically find peak positions. The “peak position” means the maximum intensity of a peaked intensity profile. The following processes were used with the Shimadzu XRD-6000 “Basic Process” version 2.6 algorithm: • Smoothing was done on all patterns. • The background was subtracted to find the net, relative intensity of the peaks. • A peak from Cu K alpha2 (1.5444 Å) wavelength was subtracted from the peak generated by Cu K alpha1 (1.5406 Å) peak at 50% intensity for all patterns. Differential Scanning Calorimetry

[2] = Solid-form stability on heating, resulting form by XRPD analysis; conditions: heated five (5) minutes at about 160° C. in an argon atmosphere, lyophilized sample (Preparation Method 3), hydrochloride
Experimental: as §1, §2, §3
C. Shimadzu XRD-6000 X-ray powder diffractometer equipped with an Anton Paar HTK 1200 high temperature stage (Variable-temperature XRPD (VT-XRPD)). The sample was packed in a ceramic holder and analyzed form 2.5 to 40° 2θ at 3°/min (0.4 sec/0.02° step). The heating rate was 10° C./min. A silicon standard was analyzed to check the instrument alignment. Temperature calibration was performed using vanillin and sulfapyridine USP melting point standards. Data were collected and analyzed using XPD-6000 v.4.1. The system was kept under a purge of nitrogen during the analysis.
as §4
E. Peak Picking Methods. Any XRPD files generated from Inel or Bruker XRPD instruments were converted to Shimadzu .raw file using File Monkey version 3.0.4. The Shimadzu .raw file was processed by the Shimadzu XRD-6000 version 4.1 software to automatically find peak positions. The “peak position” means the maximum intensity of a peaked intensity profile. The following processes were used with the Shimadzu XRD-6000 “Basic Process” version 2.6 algorithm: • Smoothing was done on all patterns. • The background was subtracted to find the net, relative intensity of the peaks. • A peak from Cu K alpha2 (1.5444 Å) wavelength was subtracted from the peak generated by Cu K alpha1 (1.5406 Å) peak at 50% intensity for all patterns. […]

[3] = Moisture sorption/desorption (VTI SGA-100 moisture balance)
Experimental: Moisture sorption/desorption data were collected on a VTI SGA-100 moisture balance system. For sorption isotherms, a sorption range of 5 to 95% relative humidity (RH) and a desorption range of 95 to 5% RH in 10% RH increments were used for analysis. The samples were not dried prior to analysis. Equilibrium criteria used for analysis were less than 0.0100% weight change in 5 minutes with a maximum equilibration time of 3 hours if the weight criterion was not met. Data were not corrected for the initial moisture content of the samples.

[4] = Approximate solubility in various solvents by aliquot addition, visual dissolution; conditions: thermodynamic from solid, amorphous obtained by Preparation Method 3
Experimental: Dissolution was determined visually. The actual solubilities may be higher than reported due to the use of excess solvent (e.g., because of slow dissolution rates).

Time stable when stored ([1]; about 5° C., 11% relative humidity): at least 5 days | Time stable when stored ([1]; about 5° C., 43% relative humidity): ≥ 8 days | Time stable when stored ([1]; room temperature, 33% relative humidity): at least 22 days | Time stable when stored ([1]; room temperature, 58% relative humidity): at least 22 days | Form indicated by XRPD analysis after storage ([1]; stored 5 days, about 5° C., about 11% relative humidity, lyophilized sample (Preparation Method 3)): tiagabine HCl amorphous | Form indicated by XRPD analysis after storage ([1]; stored 8 days, about 5° C., about 43% relative humidity, lyophilized sample (Preparation Method 3)): tiagabine HCl amorphous | Form indicated by XRPD analysis after storage ([1]; stored 22 days, room temperature, about 33% relative humidity, crash-cooled sample (Preparation Method 1)): tiagabine HCl amorphous | Form indicated by XRPD analysis after storage ([1]; stored 22 days, room temperature, about 58% relative humidity, crash-cooled sample (Preparation Method 1)): tiagabine HCl amorphous | Form indicated by XRPD analysis after storage ([1]; stored 22 days, room temperature, about 75% relative humidity, crash-cooled sample (Preparation Method 1), listed as Tiagabine hydrochloride amorphous, hydrochloride): a mixture of Forms A and B | Form indicated by XRPD analysis after storage ([1]; stored 22 days, room temperature, about 84% relative humidity, crash-cooled sample (Preparation Method 1), listed as Tiagabine hydrochloride amorphous, hydrochloride): a mixture of Forms A and B | Form indicated by XRPD analysis after heating [2]: tiagabine HCl Form B | Form indicated by XRPD analysis after heating ([2]; listed as Tiagabine hydrochloride amorphous): tiagabine hydrochloride anhydrous | Weight gain upon sorption ([3]; at 95% relative humidity (RH)): 12.1% | Weight loss upon desorption ([3]; from 95% to 5% RH): 9.5% | Forms present by XRPD analysis after moisture sorption/desorption ([3]; sample after sorption 5 to 95% RH and desorption 95 to 5% RH): tiagabine HCl Forms A and B | solubility ([4]; aqueous with cosolvent or surfactant or cyclodextrin, solvent: 2-propanol/water (1:1)): > 129 mg/mL | solubility ([4]; organic solvent or mixture, solvent: 1,4 dioxane/water (3:1)): > 359 mg/mL | solubility ([4]; organic solvent or mixture, solvent: Acetonitrile): < 26 mg/mL | solubility ([4]; organic solvent or mixture, solvent: Benzonitrile): > 448 mg/mL | solubility ([4]; organic solvent or mixture, solvent: Chloroform): > 582 mg/mL | solubility ([4]; organic solvent or mixture, solvent: Dichloromethane): < 34 mg/mL | solubility ([4]; organic solvent or mixture, solvent: Dioxane): > 542 mg/mL | solubility ([4]; organic solvent or mixture, solvent: Tetrahydrofuran): > 562 mg/mL | solubility ([4]; organic solvent or mixture, solvent: Toluene): < 43 mg/mL | solubility ([4]; organic solvent or mixture, solvent: Trifluoroethanol): > 713 mg/mL | solubility ([4]; organic solvent or mixture, solvent: ethanol/water (10:1)): > 400 mg/mL | solubility ([4]; organic solvent or mixture, solvent: ethyl acetate (wet)): > 1190 mg/mL | solubility ([4]; organic solvent or mixture, solvent: ethyl acetate): < 24 mg/mL | solubility ([4]; organic solvent or mixture, solvent: methyl ethyl ketone): > 546 mg/mL | solubility ([4]; organic solvent or mixture, solvent: methyl-tert-butyl ether): < 14 mg/mL | solubility ([4]; water, solvent: Water): > 490 mg/mL
Compound: Cc1ccsc1C(=CCCN1CCC[C@@H](C(=O)O)C1)c1sccc1C.Cl [tiagabine HCl amorphous, tiagabine hydrochloride]
Form indicated by XRPD analysis after storage ([1]; stored 22 days, room temperature, about 75% relative humidity, crash-cooled sample (Preparation Method 1), hydrochloride): a mixture of tiagabine hydrochloride Forms A and B | Form indicated by XRPD analysis after storage ([1]; stored 22 days, room temperature, about 84% relative humidity, crash-cooled sample (Preparation Method 1), hydrochloride): a mixture of tiagabine hydrochloride Forms A and B
